Values quoted from earlier work as cited in patent publication US20130035357A1, “Compositions and Methods for Preventing Joint Destruction in Osteoarthritis” (TRUSTEES OF DARTMOUTH COLLEGE, priority 2010, published 2013).

Legend:
[1] = tested on: retinoid acid receptors (RARs; e.g., RARα, RARβ, and RARγ)
[2] = tested on: RXRα, RXRβ, and RXRγ receptors
[3] = tested on: IL-1β-stimulated SW-1353 cells
[4] = human chondrocytic cells in vitro
[5] = in vitro, by decreasing the transcription rate of the gene

| Compound | activity to bind retinoid acid receptors and to transactivate the related RAR genes [1] | potency as an RXR agonist relative to bexarotene ([2]; compared with bexarotene) | potency as an agonist across RXRα, RXRβ, and RXRγ receptors ([2]; comparison between the three RXR subtypes) | production of mRNA and protein for MMP-13 (MMP-13; [4]) | inhibition of proinflammatory cytokine-induced upregulation of MMP-13 (MMP-13; [5]) | breakdown of collagen by the cells [3, 4] | ability of IL-1β-stimulated SW-1353 cells to degrade collagen matrix ([3]; in vitro) | production of mRNA and protein for MMP-1 (MMP-1; [4]) | inhibition of proinflammatory cytokine-induced upregulation of MMP-1 (MMP-1; [5]) |
| --- | --- | --- | --- | --- | --- | --- | --- | --- | --- |
| C=C(c1ccc(C(=O)O)cc1)c1cc2c(cc1C)C(C)(C)CCC2(C)C [Bexarotene, bexarotene] | negligible activity |  |  |  |  |  |  |  |  |
| Cc1cc2c(cc1C1(c3ccc(C(=O)O)cn3)CC1)C(C)(C)CCC2(C)C [LG268] |  | almost an order of magnitude more potent than bexarotene | equal potency | inhibit | inhibit | prevented breakdown of collagen | blunt | inhibit | inhibit |
